These molecules were tested against T1, ERK5 (Homo sapiens, UniProt Q13164) (assay: ERK5 IMAP assay (fluorescence polarisation)). Settings: average (e.g. geometric mean) where more than one data point; read-out: ERK5 IC50.
T1 construct: made in house
Format: biochemical
Description: The assay buffer was prepared using 0.01% Tween®-20 5× stock, supplied as part of IMAP™ FP Progressive Binding System Kit (Molecular Devices R7436) and diluted to 1× using miliQ H2O. 1 μL of a 1M DTT stock was added for every 1 mL of 1× assay buffer to give a final concentration of 1 mM DTT.
ERK5 was expressed and purified at CRT-DL by Leon Pang and Sue Young. Aliquots were stored at −80° C. The ERK5 working solution was used at a […] final dilution in assay buffer. […] For 1 plate, […] of ERK5 stock was added to 2262 μL of 1× assay buffer.
To prepare the IMAP™ binding solution for one plate 20.5 μL of IMAP™ binding reagent stock, 1476 μL of 1× binding buffer A (60%), and 984 μL of binding buffer B (40%) (IMAP™ FP Progressive screening express kit (Molecular Devices R8127) was added to 9819.5 μL of milliQ H2O.
1 μL of inhibitor (in 60:40 H2O/DMSO) or 60:40 H2O/DMSO (for controls and blanks) were dry-spotted into the relevant wells of a 384-well assay plate using the MATRIX PlateMate® Plus. 5 μL of ERK5 working solution was added to test and control wells, and 5 μL of 1× assay buffer added to blanks; 4 μL of ATP/substrate working solution was added to all wells using a Matrix multichannel pipette. The plate was sealed using DMSO resistant clear seal and incubated for 2 h at 37° C. 1 μL of the kinase reaction mixture from the first plate was dry spotted into a second 384-well assay plate using the MATRIX PlateMate® Plus. 9 μL of assay buffer was added, followed by 30 μL of IMAP™ binding solution using a multichannel pipette. The plate was incubated at RT in darkness for 2 h. The assay plate was then read on an Analyst HT plate reader (Molecular Devices) using the settings described below: […]

T1 sequence (Q13164 whole entry): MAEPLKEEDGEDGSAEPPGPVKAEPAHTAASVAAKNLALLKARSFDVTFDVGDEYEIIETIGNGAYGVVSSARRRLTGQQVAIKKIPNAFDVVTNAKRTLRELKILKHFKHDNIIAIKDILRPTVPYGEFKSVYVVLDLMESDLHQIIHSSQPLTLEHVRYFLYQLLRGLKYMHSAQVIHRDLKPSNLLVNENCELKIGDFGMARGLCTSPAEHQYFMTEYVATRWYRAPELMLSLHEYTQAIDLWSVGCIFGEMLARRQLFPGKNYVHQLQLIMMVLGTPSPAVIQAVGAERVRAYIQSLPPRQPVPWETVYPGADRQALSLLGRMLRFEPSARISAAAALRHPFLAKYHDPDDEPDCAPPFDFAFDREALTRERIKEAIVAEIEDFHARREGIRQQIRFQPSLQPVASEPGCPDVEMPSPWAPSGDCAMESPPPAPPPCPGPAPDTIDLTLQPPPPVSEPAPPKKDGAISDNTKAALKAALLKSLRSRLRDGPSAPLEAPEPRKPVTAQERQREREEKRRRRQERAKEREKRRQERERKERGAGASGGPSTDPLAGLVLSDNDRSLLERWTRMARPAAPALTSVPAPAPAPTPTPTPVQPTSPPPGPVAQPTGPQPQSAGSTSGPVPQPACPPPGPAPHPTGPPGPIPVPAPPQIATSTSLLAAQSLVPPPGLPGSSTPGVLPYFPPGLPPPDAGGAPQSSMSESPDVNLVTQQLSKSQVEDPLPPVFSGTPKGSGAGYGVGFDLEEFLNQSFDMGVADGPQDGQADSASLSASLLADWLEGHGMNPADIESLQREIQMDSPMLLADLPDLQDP

SMILES | IC50 [µM]
O=C(Nc1cccnc1)c1cc(C(=O)c2c(F)cccc2C2CC2)c[nH]1 [Example 202, 4-(2-Cyclopropyl-6-fluorobenzoyl)-N-(pyridin-3-yl)-1H-pyrrole-2-carboxamide] | 23
O=C(NC1CCNCC1)c1cc(C(=O)c2c(F)cccc2C2CC2)c[nH]1 [Example 203, 4-(2-Cyclopropyl-6-fluorobenzoyl)-N-(piperidin-4-yl)-1H-pyrrole-2-carboxamide] | 5.82
O=C(Nc1ccnnc1)c1cc(C(=O)c2c(F)cccc2Br)c[nH]1 [Example 139, 4-(2-Bromo-6-fluorobenzoyl)-N-(pyridazin-4-yl)-1H-pyrrole-2-carboxamide] | 0.818
CCc1ccncc1NC(=O)c1cc(C(=O)c2c(F)cccc2Cl)c[nH]1 [Example 88, 4-(2-Chloro-6-fluorobenzoyl)-N-(4-ethylpyridin-3-yl)-1H-pyrrole-2-carboxamide] | 2.14
O=C(Nc1ccncn1)c1cc(C(=O)c2c(F)cccc2Cl)c[nH]1 [Example 132, 4-(2-Chloro-6-fluorobenzoyl)-N-(pyrimidin-4-yl)-1H-pyrrole-2-carboxamide] | 1.15
O=C(Nc1ccc(F)nc1)c1cc(C(=O)c2c(F)cccc2Br)c[nH]1 [Example 153, 4-(2-Bromo-6-fluorobenzoyl)-N-(6-fluoropyridin-3-yl)-1H-pyrrole-2-carboxamide] | 1.7
CC(=O)N1CCC(NC(=O)c2cc(C(=O)c3c(F)cccc3Cl)c[nH]2)CC1 [Example 6, N-(1-Acetylpiperidin-4-yl)-4-(2-chloro-6-fluorobenzoyl)-1H-pyrrole-2-carboxamide] | 0.459
CCc1cccc(F)c1C(=O)c1c[nH]c(C(=O)NC2CCNCC2)c1 [Example 200, 4-(2-Ethyl-6-fluorobenzoyl)-N-(piperidin-4-yl)-1H-pyrrole-2-carboxamide] | 4.98
O=C(Nc1cc[nH]c(=O)n1)c1cc(C(=O)c2c(F)cccc2Cl)c[nH]1 [Example 146, 4-(2-Chloro-6-fluorobenzoyl)-N-(2-oxo-1,2-dihydropyrimidin-4-yl)-1H-pyrrole-2-carboxamide] | 2.94
O=C(NC1CCNCC1)c1cc(C(=O)c2cc(Cl)ccc2F)c[nH]1 [Example 230, 4-(5-Chloro-2-fluorobenzoyl)-N-(piperidin-4-yl)-1H-pyrrole-2-carboxamide] | 1.66
O=C(Nc1ccncn1)c1cc(C(=O)c2c(F)cccc2F)c[nH]1 [Example 130, 4-(2,6-Difluorobenzoyl)-N-(pyrimidin-4-yl)-1H-pyrrole-2-carboxamide] | 2.14
CCc1ccc(F)c(C(=O)c2c[nH]c(C(=O)NC3CCN(C)CC3)c2)c1F [Example 164, 4-(3-Ethyl-2,6-difluorobenzoyl)-N-(1-methylpiperidin-4-yl)-1H-pyrrole-2-carboxamide] | 0.61
C=Cc1ccc(F)c(C(=O)c2c[nH]c(C(=O)Nc3cncnc3)c2)c1F [Example 166, 4-(2,6-Difluoro-3-vinylbenzoyl)-N-(pyrimidin-5-yl)-1H-pyrrole-2-carboxamide] | 1.37
Cc1cc(NC(=O)c2cc(C(=O)c3c(F)cccc3Br)c[nH]2)cc(C)n1 [Example 135, 4-(2-Bromo-6-fluorobenzoyl)-N-(2,6-dimethylpyridin-4-yl)-1H-pyrrole-2-carboxamide] | 0.653

Next, values leading:

IC50 [µM] | SMILES
0.779 | Cc1ccc(F)c(C(=O)c2c[nH]c(C(=O)Nc3cncnc3)c2)c1F [Example 218, 4-(2,6-Difluoro-3-methylbenzoyl)-N-(pyrimidin-5-yl)-1H-pyrrole-2-carboxamide]
0.0752 | COCCn1cc(NC(=O)c2cc(C(=O)c3c(Cl)ccc(Cl)c3F)c[nH]2)cn1 [Example 47, 4-(3,6-Dichloro-2-fluorobenzoyl)-N-(1-(2-methoxyethyl)-1H-pyrazol-4-yl)-1H-pyrrole-2-carboxamide]
1.74 | O=C(Nc1cccnc1)c1cc(C(=O)c2c(Cl)ccc(OC3CCOCC3)c2F)c[nH]1 [Example 267, 4-(6-Chloro-2-fluoro-3-((tetrahydro-2H-pyran-4-yl)oxy)benzoyl)-N-(pyridin-3-yl)-1H-pyrrole-2-carboxamide]
3.54 | CCCc1ncccc1NC(=O)c1cc(C(=O)c2c(Cl)ccc(Cl)c2F)c[nH]1 [Example 83, 4-(3,6-Dichloro-2-fluorobenzoyl)-N-(2-propylpyridin-3-yl)-1H-pyrrole-2-carboxamide]
0.129 | COc1ccc(Cl)c(C(=O)c2c[nH]c(C(=O)Nc3cnc(CN4CCOCC4)nc3)c2)c1F [Example 243, 4-(6-Chloro-2-fluoro-3-methoxybenzoyl)-N-(2-(morpholinomethyl)pyrimidin-5-yl)-1H-pyrrole-2-carboxomide]
0.0583 | Cn1cc(NC(=O)c2cc(C(=O)c3c(Cl)ccc(OC4COC4)c3F)c[nH]2)cn1 [Example 273, 4-(6-Chloro-2-fluoro-3-(oxetan-3-yloxy)benzoyl)-N-(1-methyl-1H-pyrazol-4-yl)-1H-pyrrole-2-carboxamide]
0.653 | COCCOc1ccc(Cl)c(C(=O)c2c[nH]c(C(=O)Nc3cccnc3)c2)c1F [Example 258, 4-(6-Chloro-2-fluoro-3-(2-methoxyelhoxy)benzoyl)-N-(pyridin-3-yl)-1H-pyrrole-2-carboxamide]
0.2 | O=C(Nc1ccc(CO)nc1)c1cc(C(=O)c2c(Cl)ccc(Cl)c2F)c[nH]1 [Example 120, 4-(3,6-dichloro-2-fluorobenzoyl)-N-(6-(hydroxymethyl)pyridin-3-yl)-1H-pyrrole-2-carboxamide]
16.5 | O=C(Nc1cnccc1N1CCCC1)c1cc(C(=O)c2c(F)cccc2Cl)c[nH]1 [Example 92, 4-(2-Chloro-6-fluorobenzoyl)-N-(4-(pyrrolidin-1-yl)pyridin-3-yl)-1H-pyrrole-2-carboxamide]
1.49 | O=C(Nc1ccc(F)nc1)c1cc(C(=O)c2c(F)cccc2Cl)c[nH]1 [Example 152, 4-(2-Chloro-6-fluorobenzoyl)-N-(6-fluoropyridin-3-yl)-1H-pyrrole-2-carboxamide]
0.437 | COc1ccc(F)c(C(=O)c2c[nH]c(C(=O)Nc3cncnc3)c2)c1Cl [Example 75, 4-(2-chloro-6-fluoro-3-methoxybenzoyl)-N-(pyrimidin-5-yl)-1H-pyrrole-2-carboxamide]
3.46 | CCc1ccc(F)c(C(=O)c2c[nH]c(C(=O)Nc3cncnc3)c2)c1F [Example 163, 4-(3-Ethyl-2,6-difluorobenzoyl)-N-(pyrimidin-5-yl)-1H-pyrrole-2-carboxamide]
0.0612 | O=C(Nc1cnn(CCO)c1)c1cc(C(=O)c2c(Cl)ccc(Cl)c2F)c[nH]1 [Example 235, 4-(3,6-Dichloro-2-fluorobenzo)-N-(1-(2-hydroxyethyl)-1H-pyrazol-4-yl)-1H-pyrrole-2-carboxamide]
5.38 | CC(=O)OC1CCN(c2ncc(NC(=O)c3cc(C(=O)c4c(F)cccc4Cl)c[nH]3)cn2)CC1 [Example 21, 1-(5-(4-(2-Chloro-6-fluorobenzoyl)-1H-pyrrole-2-carboxamido)pyrimidin-2-yl)piperidin-4-yl acetate]
0.148 | O=C(Nc1cnn(C2CCOCC2)c1)c1cc(C(=O)c2c(Cl)ccc(Cl)c2F)c[nH]1 [Example 237, 4-(3,6-Dichloro-2-fluorobenzoyl)-N-(1-(tetrahydro-2H-pyran-4-yl)-1H-pyrazol-4-yl)-1H-pyrrole-2-carboxamide]
0.119 | CS(=O)(=O)CCn1cc(NC(=O)c2cc(C(=O)c3c(Cl)ccc(Cl)c3F)c[nH]2)cn1 [Example 238, 4-(3,6-Dichloro-2-fluorobenzoyl)-N-(1-(2-(methylsulfonyl)ethyl)-1H-pyrazol-4-yl)-1H-pyrrole-2-carboxamide]
0.0079 | COc1ccc(Cl)c(C(=O)c2c[nH]c(C(=O)Nc3ccc(CN4CCNCC4)nc3)c2)c1F [Example 251, 4-(6-Chloro-2-fluoro-3-methoxybenzoyl)-N-(6-(piperazin-1-ylmethyl)pyridin-3-yl)-1H-pyrrole-2-carboxamtde]
0.0843 | COc1ccc(Cl)c(C(=O)c2c[nH]c(C(=O)Nc3cnn(C)c3)c2)c1F [Example 62, 4-(6-Chloro-2-fluoro-3-methoxybenzoyl)-N-(1-methyl-1H-pyrazol-4-yl)-1H-pyrrole-2-carboxamide]
0.458 | O=C(Nc1cccnc1)c1cc(C(=O)c2c(Cl)ccc(OC(CO)CCl)c2F)c[nH]1 (stereo not shown) [Example 270, 4-(6-Chloro-3-((1-chloro-3-hydroxypropan-2-yl)oxy)-2-fluorobenzoyl)-N-(pyridin-3-yl)-1H-pyrrole-2-carboxamide]
0.0269 | COc1ccc(Cl)c(C(=O)c2c[nH]c(C(=O)Nc3ccc(NC4CCN(C)CC4)nc3)c2)c1F [Example 61, 4-(6-Chloro-2-fluoro-3-methoxybenzoyl)-N-(6-((1-methylpiperidin-4-yl)amino)pyridin-3-yl)-1H-pyrrole-2-carboxamide]

Source: patent publication US10344017B2, “Pyrrolcarboxamide derivatives for the inhibition of ERK5” (CANCER RESEARCH TECHNOLOGY LIMITED, priority 2014, dated 2019)
